One experiment concerns the target T1, Human Calpain 1/NS1 (Homo sapiens, UniProt P07384).
T1 sequence (P07384 1-714): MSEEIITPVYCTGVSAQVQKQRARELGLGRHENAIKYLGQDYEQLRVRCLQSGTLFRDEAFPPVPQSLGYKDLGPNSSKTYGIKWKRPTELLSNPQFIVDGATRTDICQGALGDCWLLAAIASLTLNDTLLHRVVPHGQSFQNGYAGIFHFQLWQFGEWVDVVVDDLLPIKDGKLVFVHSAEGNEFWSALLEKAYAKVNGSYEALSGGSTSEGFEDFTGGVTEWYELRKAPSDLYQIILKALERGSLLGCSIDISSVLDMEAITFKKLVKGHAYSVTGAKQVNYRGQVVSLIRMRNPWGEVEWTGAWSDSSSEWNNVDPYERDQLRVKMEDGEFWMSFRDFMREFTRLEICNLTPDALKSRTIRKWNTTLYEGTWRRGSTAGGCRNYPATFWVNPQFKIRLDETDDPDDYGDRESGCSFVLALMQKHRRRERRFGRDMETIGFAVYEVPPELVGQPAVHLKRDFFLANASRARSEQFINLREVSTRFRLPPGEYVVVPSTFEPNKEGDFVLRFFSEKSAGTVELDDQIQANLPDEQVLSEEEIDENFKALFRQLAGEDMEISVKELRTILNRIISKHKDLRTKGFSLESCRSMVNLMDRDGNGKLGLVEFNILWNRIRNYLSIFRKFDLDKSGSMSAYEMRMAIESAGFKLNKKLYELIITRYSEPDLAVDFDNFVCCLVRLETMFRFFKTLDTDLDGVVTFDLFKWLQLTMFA
T1 sequence (P04632 1-268 partner): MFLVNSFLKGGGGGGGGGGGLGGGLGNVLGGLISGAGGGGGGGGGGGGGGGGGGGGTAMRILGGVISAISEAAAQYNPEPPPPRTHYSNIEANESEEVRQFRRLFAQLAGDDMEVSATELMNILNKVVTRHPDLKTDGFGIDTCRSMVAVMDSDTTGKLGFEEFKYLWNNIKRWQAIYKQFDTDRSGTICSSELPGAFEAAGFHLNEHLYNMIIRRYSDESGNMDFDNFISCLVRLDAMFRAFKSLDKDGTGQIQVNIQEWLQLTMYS
Description: Calpain inhibition continuous fluorescence (FRET) assay, Human Calpain 1/NS1. The class given is biochemical. The procedure, abridged: (§1)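 Continuous FRET read (ex 490/em 520 nm, 10 min) of calpain 1, 2 or 9 cleaving an internally quenched 5-FAM peptide, triggered by substrate with CaCl2 after enzyme–inhibitor incubation at ambient 25 °C, pH 7.5 Tris/NaCl/DTT buffer. IC50 from initial rates (1-5 min) via 4-parameter fit.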

Another experiment concerns the target T2, Human Calpain 2/NS1 (Homo sapiens, UniProt P17655).
T2 sequence (P17655 1-700): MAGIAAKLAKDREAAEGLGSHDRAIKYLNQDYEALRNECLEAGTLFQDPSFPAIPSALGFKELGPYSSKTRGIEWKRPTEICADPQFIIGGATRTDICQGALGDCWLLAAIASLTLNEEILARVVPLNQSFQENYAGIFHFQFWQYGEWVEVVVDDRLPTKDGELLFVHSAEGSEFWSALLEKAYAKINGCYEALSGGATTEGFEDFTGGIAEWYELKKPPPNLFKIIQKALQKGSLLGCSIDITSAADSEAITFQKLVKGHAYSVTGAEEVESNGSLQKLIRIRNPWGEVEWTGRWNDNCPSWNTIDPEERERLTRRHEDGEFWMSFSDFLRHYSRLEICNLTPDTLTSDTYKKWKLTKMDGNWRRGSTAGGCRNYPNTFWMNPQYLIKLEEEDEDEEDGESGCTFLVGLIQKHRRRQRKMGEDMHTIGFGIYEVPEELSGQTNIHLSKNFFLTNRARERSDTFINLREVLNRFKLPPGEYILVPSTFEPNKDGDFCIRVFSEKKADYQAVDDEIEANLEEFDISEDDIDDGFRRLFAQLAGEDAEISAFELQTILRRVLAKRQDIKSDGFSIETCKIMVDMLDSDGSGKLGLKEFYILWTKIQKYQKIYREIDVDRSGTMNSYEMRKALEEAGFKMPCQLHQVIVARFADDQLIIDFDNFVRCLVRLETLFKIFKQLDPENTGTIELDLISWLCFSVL
T2 sequence (P04632 1-268 partner): T1 sequence (P04632 1-268 partner)
Description: Calpain inhibition continuous fluorescence (FRET) assay, Human Calpain 2/NS1. Format: biochemical. The procedure, abridged:
as §1

A further experiment addresses T3, Human Calpain 9/NS1 (Homo sapiens, UniProt O14815).
T3 sequence (O14815 1-690): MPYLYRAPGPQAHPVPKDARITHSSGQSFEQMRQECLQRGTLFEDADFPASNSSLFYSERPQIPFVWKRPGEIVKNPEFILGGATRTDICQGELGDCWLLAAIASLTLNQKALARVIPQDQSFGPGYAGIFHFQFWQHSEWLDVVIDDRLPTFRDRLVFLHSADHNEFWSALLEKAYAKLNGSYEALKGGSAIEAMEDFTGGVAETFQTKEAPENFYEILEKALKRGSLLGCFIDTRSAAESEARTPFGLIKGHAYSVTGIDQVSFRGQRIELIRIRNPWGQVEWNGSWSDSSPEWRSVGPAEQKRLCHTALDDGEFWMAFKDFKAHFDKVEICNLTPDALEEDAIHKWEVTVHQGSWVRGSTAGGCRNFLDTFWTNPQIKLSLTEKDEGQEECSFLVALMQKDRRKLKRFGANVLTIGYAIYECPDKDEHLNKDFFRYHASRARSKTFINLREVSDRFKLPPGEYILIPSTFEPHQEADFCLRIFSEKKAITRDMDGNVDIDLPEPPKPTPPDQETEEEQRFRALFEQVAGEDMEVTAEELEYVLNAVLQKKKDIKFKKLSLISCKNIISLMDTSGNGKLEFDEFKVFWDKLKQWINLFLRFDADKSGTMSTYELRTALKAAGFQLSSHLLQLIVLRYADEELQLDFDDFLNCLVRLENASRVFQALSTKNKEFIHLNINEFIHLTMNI
T3 sequence (P04632 1-268 partner): T1 sequence (P04632 1-268 partner)
Briefly: Calpain inhibition continuous fluorescence (FRET) assay, Human Calpain 9/NS1. The class given is biochemical. The procedure, abridged: as §1

Experiment [1] deals with Calpain activity in SH-SY5Y cells (SBDP-150). Description: SH-SY5Y Spectrin western blot assay (SBDP-150 breakdown product, A23187-induced). Format: cell-based. As to conditions: Homo sapiens, read-out: SH-SY5Y Spectrin IC50.
The test system of experiment [2] is Calpain activity in SH-SY5Y cells. Description: SH-SY5Y + AMC fluorescence assay (Suc-LLVY-AMC substrate). The class given is cell-based. As to conditions: read-out: SH-SY5Y + AMC IC50.
[3] abbreviates: read-out: Human Calpain 1/NS1 IC50.
The mark [4] stands for this setting: read-out: Human Calpain 2/NS1 IC50.
Setting [5] is: read-out: Human Calpain 9/NS1 IC50.
[6] abbreviates: SH-SY5Y cells, A23187-induced SBDP-150, western blot.

Read-outs that look alike come from different tables or passages of the source.

`CN(C)C(=O)CNC(=O)C(=O)[C@H](Cc1ccccc1)NC(=O)c1cn(C)nc1-c1ccccc1` [Compound 337, (S)—N-(4-((2-(dimethylamino)-2-oxoethyl)amino)-3,4-dioxo-1-phenylbutan-2-yl)-1-methyl-3-phenyl-1H-pyrazole-4-carboxamide]: the IC50 at Human Calpain 1/NS1 (setting [3]) was less than 3 µM; on Human Calpain 2/NS1 (setting [4]), less than 3 µM; at Human Calpain 9/NS1 (setting [5]) it was less than 3 µM; in experiment [1] (setting [6]), less than 10 µM; in experiment [2] it was less than 10 µM.
Consider `Cn1cc(C(=O)N[C@@H](Cc2ccccc2)C(=O)C(=O)NCCC(N)=O)c(-c2ccccc2)n1` [Compound 338, (S)—N-(4-((3-amino-3-oxopropyl)amino)-3,4-dioxo-1-phenylbutan-2-yl)-1-methyl-3-phenyl-1H-pyrazole-4-carboxamide], for which the IC50 at Human Calpain 1/NS1 (setting [3]) is less than 3 µM; on Human Calpain 2/NS1 (setting [4]), less than 3 µM; on Human Calpain 9/NS1 (setting [5]) it was less than 3 µM; in experiment [1] (setting [6]), more than 25 µM; in experiment [2], less than 10 µM.
For `Cn1cc(C(=O)N[C@@H](Cc2ccccc2)C(=O)C(=O)NCC(N)=O)c(-c2ccccc2)n1` [Compound 339, (S)—N-(4-((2-amino-2-oxoethyl)amino)-3,4-dioxo-1-phenylbutan-2-yl)-1-methyl-3-phenyl-1H-pyrazole-4-carboxamide], the IC50 was less than 3 µM at Human Calpain 1/NS1 (setting [3]); less than 3 µM on Human Calpain 2/NS1 (setting [4]); less than 3 µM at Human Calpain 9/NS1 (setting [5]); more than 25 µM in experiment [1] (setting [6]); 10 to 25 µM in experiment [2].
On to `Cc1cc(C(=O)N[C@H](C=O)Cc2ccccc2)n(-c2ncccn2)n1` [Compound 341, (S)-3-methyl-N-(1-oxo-3-phenylpropan-2-yl)-1-(pyrimidin-2-yl)-1H-pyrazole-5-carboxamide], for which the IC50 on Human Calpain 1/NS1 (setting [3]) was less than 3 µM; at Human Calpain 2/NS1 (setting [4]), less than 3 µM; at Human Calpain 9/NS1 (setting [5]), 3 to 10 µM; in experiment [1] (setting [6]), more than 25 µM; in experiment [2], 10 to 25 µM.
`NC(=O)C(=O)C(Cc1ccccc1)NC(=O)c1cc(C(F)(F)C(F)(F)F)nn1-c1ccccc1` (centres unmarked) [Compound 342, N-(4-amino-3,4-dioxo-1-phenylbutan-2-yl)-3-(perfluoroethyl)-1-phenyl-1H-pyrazole-5-carboxamide]: the IC50 on Human Calpain 1/NS1 (setting [3]) is less than 3 µM; at Human Calpain 2/NS1 (setting [4]) it was less than 3 µM; on Human Calpain 9/NS1 (setting [5]), less than 3 µM; in experiment [1] (setting [6]), 10 to 25 µM; in experiment [2] it was 10 to 25 µM.
Consider `Cc1cc(C(=O)N[C@@H](Cc2ccccc2)C(=O)C(N)=O)n(-c2cccc(CNC(=O)Oc3ccccc3)c2)n1` [Compound 344, Phenyl (S)-(3-(5-((4-amino-3,4-dioxo-1-phenylbutan-2-yl)carbamoyl)-3-methyl-1H-pyrazol-1-yl)benzyl)carbamate], for which the IC50 against Human Calpain 1/NS1 was less than 3 µM; against Human Calpain 2/NS1 it was less than 3 µM; on Human Calpain 9/NS1, less than 3 µM; in experiment [1] (SH-SY5Y), more than 25 µM; in experiment [2] it was 10 to 25 µM.
On to `NC(=O)C(=O)C(Cc1ccccc1)NC(=O)c1c(Cl)cnn1-c1ncccn1` (centres unmarked) [Compound 347, N-(4-amino-3,4-dioxo-1-phenylbutan-2-yl)-4-chloro-1-(pyrimidin-2-yl)-1H-pyrazole-5-carb oxamide], for which the IC50 at Human Calpain 1/NS1 (setting [3]) is less than 3 µM; at Human Calpain 2/NS1 (setting [4]), less than 3 µM; at Human Calpain 9/NS1 (setting [5]), less than 3 µM; in experiment [1] (setting [6]), 10 to 25 µM; in experiment [2], more than 25 µM.
Turning to `Cc1cc(C(=O)NC(Cc2ccccc2)C(=O)C(N)=O)n(-c2ncccc2F)n1` (centres unmarked) [Compound 348, N-(4-amino-3,4-dioxo-1-phenylbutan-2-yl)-1-(3-fluoropyridin-2-yl)-3-methyl-1H-pyrazole-5-carboxamide], the IC50 is less than 3 µM at Human Calpain 1/NS1 (setting [3]); less than 3 µM on Human Calpain 2/NS1 (setting [4]); less than 3 µM on Human Calpain 9/NS1 (setting [5]); more than 25 µM in experiment [1] (setting [6]); less than 10 µM in experiment [2].
Turning to `NC(=O)C(=O)C(Cc1ccccc1)NC(=O)c1cc(C(F)(F)F)nn1-c1ncccn1` (centres unmarked) [Compound 349, N-(4-amino-3,4-dioxo-1-phenylbutan-2-yl)-1-(pyrimidin-2-yl)-3-(trifluoromethyl)-1H-pyrazole-5-carboxamide], the IC50 at Human Calpain 1/NS1 (setting [3]) was less than 3 µM; on Human Calpain 2/NS1 (setting [4]), less than 3 µM; at Human Calpain 9/NS1 (setting [5]), less than 3 µM; in experiment [1] (setting [6]), more than 25 µM; in experiment [2], less than 10 µM.
As for `NC(=O)C(=O)C(Cc1ccccc1)NC(=O)c1cc(Cl)nn1-c1ncccn1` (centres unmarked) [Compound 350, N-(4-amino-3,4-dioxo-1-phenylbutan-2-yl)-3-chloro-1-(pyrimidin-2-yl)-1H-pyrazole-5-carb oxamide], the IC50 was less than 3 µM at Human Calpain 1/NS1 (setting [3]); less than 3 µM at Human Calpain 2/NS1 (setting [4]); less than 3 µM at Human Calpain 9/NS1 (setting [5]); 10 to 25 µM in experiment [1] (setting [6]); less than 10 µM in experiment [2].
On to `Cc1cc(C(=O)NC(Cc2ccccc2)C(=O)C(N)=O)n(-c2ncccn2)n1` (centres unmarked) [Compound 351, N-(4-amino-3,4-dioxo-1-phenylbutan-2-yl)-3-methyl-1-(pyrimidin-2-yl)-1H-pyrazole-5-carb oxamide], for which the IC50 is less than 3 µM on Human Calpain 1/NS1 (setting [3]); less than 3 µM on Human Calpain 2/NS1 (setting [4]); less than 3 µM at Human Calpain 9/NS1 (setting [5]); 10 to 25 µM in experiment [1] (setting [6]); less than 10 µM in experiment [2].
Turning to `Cc1cc(C(=O)NC(Cc2ccccc2)C(=O)C(N)=O)n(-c2ccnc(C3CC3)n2)n1` (centres unmarked) [Compound 352, N-(4-amino-3,4-dioxo-1-phenylbutan-2-yl)-1-(2-cyclopropylpyrimidin-4-yl)-3-methyl-1H-pyrazole-5-carboxamide], the IC50 was less than 3 µM at Human Calpain 1/NS1 (setting [3]); less than 3 µM on Human Calpain 2/NS1 (setting [4]); less than 3 µM on Human Calpain 9/NS1 (setting [5]); more than 25 µM in experiment [1] (setting [6]); 10 to 25 µM in experiment [2].
Consider `Cc1nc(-c2cccc(F)c2)c(C(=O)N[C@H](C=O)Cc2ccccc2)o1` [Compound 353, (S)-4-(3-fluorophenyl)-2-methyl-N-(1-oxo-3-phenylpropan-2-yl)oxazole-5-carboxamide], for which the IC50 on Human Calpain 1/NS1 (setting [3]) was less than 3 µM; on Human Calpain 2/NS1 (setting [4]), less than 3 µM; on Human Calpain 9/NS1 (setting [5]), less than 3 µM; in experiment [1] (setting [6]), 10 to 25 µM; in experiment [2], more than 25 µM.

(Values after patent US11339130B1 (Blade Therapeutics, Inc., priority 2016, dated 2022).)
